Test results as given in patent publication US11879137B2, “Treatment of type 1 diabetes and autoimmune diseases or disorders” (THE CHILDREN'S MEDICAL CENTER CORPORATION, priority 2017, dated 2024).

Test system: CD34+ cells
Assay: qRT-PCR of PD-L1, CXCR4 and IDO-1 in prostaglandin-modulated CD34+ cells
Type: cell-based, human
Conditions: for PD-L1 mRNA expression by RT-PCR: CD34+ cells upon modulation
Protocol: qRT-PCR. RNA was extracted from CD34+ cells using Direct-Zol™ RNA Kits (Zymo, Irvine, CA, USA) and Trizol Reagent (Invitrogen Carlsbad, CA), RNA quality was assessed by Multiskan™ GO Microplate spectrophotometer and the ratios of absorbance at 260 nm and 280 nm were assessed for all the samples. Only samples with RNA ratios within 1.9 were included in the present study. cDNA synthesis was made from purified total RNA by reverse transcription using High capacity cDNA Reverse Transcription RETROscript® Kit (Thermo Fisher Scientific, Waltham, MA, USA) followed by a pre-amplification using Taqman PreAmp Kit (Applied Biosystems) according to the manufacturer's instructions. qRT-PCR analysis was performed using TaqMan assays (Life Technologies, Grand Island, NY) containing PCR primers and TaqMan probes according to the manufacturer's instructions. Normalized expression values were determined using the ΔCt method. Quantitative reverse transcriptase polymerase chain reaction (qRT-PCR) data were normalized for the expression of GAPDH. qRT-PCR reactions were performed in triplicate in a 96-well format using an Applied Biosystems 7900HT fast real-time PCR instrument. Relative expression was calculated using the comparative threshold cycle method as previously described (23, 24). For two-group comparisons, a Student's t test was employed. Reported below are the main characteristics of the primers used: […]
Prostaglandin library screening. PGE2 has been described as a small molecule known to enhance the homing and engraftment of HSPCs. It was therefore sought to screen all known types of prostaglandins using the Prostaglandin Screening Library II, which contains 64 small molecules. Each small molecule contained in the library was first screened for its capacity to upregulate PD-L1 in human CD34+ cells isolated from T1D patients (FIG. 17A-17B). CD34+ cells isolated from T1D patients were cultured in StemSpan SFEMII and pulsed with each PG (prostaglandin) small molecule contained in the aforementioned library at a concentration of 10 μM at 24 and 48h. Using FACS analysis, the MFI (mean fluorescence intensity) of PD-L1 expression was calculated following treatment with each small molecule used to modulate CD34+ cells as compared to untreated/unmodulated CD34+ cells (FIG. 17B). A heat map was generated depicting the degree to which each PG small molecule affected PD-L1 expression on CD34+ cells (FIG. 17B), thus allowing for the evaluation of PG candidates. Based on its ability to modulate PD-L1 expression, PGE2 was selected as a candidate for further study; in addition, PGE2 has been described in the literature and has been tested in clinical trials as a potential therapy for enhancing HSPC engraftment following cord blood transplantation (21). Isolated CD34+ cells from healthy control patients (CTRL) and from T1D patients were cultured in StemSpan SFEMII and pulsed with 10 μM of PGE2 at 24 hours and 48 hours. […] It was therefore sought to perform a migration assay in order to assess the homing properties of PGE2-treated CD34+ cells (FIG. 17F).

Compound	PD-L1 mRNA expression by RT-PCR	IDO-1 expression (mRNA) (post-pharmacologic modulation)	increase of CXCR4 gene expression by RT-PCR (vs untreated CD34+ cells)
CCCCC(C)(C)[C@H](O)/C=C/[C@H]1[C@H](O)CC(=O)[C@@H]1C/C=C\CCCC(=O)O [16,16-dimethyl PGE2]	marked upregulation	–	–
CCCCC[C@H](O)/C=C/[C@H]1[C@H](O)CC(=O)[C@@H]1C/C=C\CCCC(=O)O [PGE2, prostaglandin E2]	slight increase	remained unchanged	2 fold
